Measured values published in the supplement of paper PMC10627819.

What was measured:
Experiment in all cases: Bliss interaction score (quartile over a dose matrix) (fitness difference); higher = more antagonism (negative = synergy)
[1] = test system: S. aureus DSM 20231
In short: (§1)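 Fitness was OD595 at entry into stationary phase divided by the plate's robust no-drug mean and capped at 1; single-drug fitness was inferred from combination data. The Bliss score is observed minus expected (product) fitness, summarised by quartiles over technical, biological and donor/recipient replicates.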

[2] = test system: S. aureus Newman; settings: main component drawn
In short: as §1

[3] = test system: S. pneumoniae D39V; settings: main component drawn
In short: as §1

[4] = test system: B. subtilis 168; settings: main component drawn
In short: as §1
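Note: first quartile when negative (synergy) and third quartile when positive (antagonism).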

## CC[C@H](C)[C@H](N)C1=N[C@H](C(=O)N[C@@H](CC(C)C)C(=O)N[C@H](CCC(=O)O)C(=O)N[C@H](C(=O)N[C@H]2CCCCNC(=O)[C@H](CC(N)=O)NC(=O)[C@@H](CC(=O)O)NC(=O)[C@H](Cc3cnc[nH]3)NC(=O)[C@@H](Cc3ccccc3)NC(=O)[C@H]([C@@H](C)CC)NC(=O)[C@@H](CCCN)NC2=O)[C@@H](C)CC)CS1 [Bacitracin] + C1=CC(=CC(=C1)Cl)NN=C(C#N)C#N [CCCP]
[1]; main component drawn
  Bliss interaction score: -0.0168
[2]
  Bliss interaction score: 0.194
[3]
  Bliss interaction score: 0.0638
[4]
  Bliss interaction score: 0.0608

## CC[C@H](C)[C@H](N)C1=N[C@H](C(=O)N[C@@H](CC(C)C)C(=O)N[C@H](CCC(=O)O)C(=O)N[C@H](C(=O)N[C@H]2CCCCNC(=O)[C@H](CC(N)=O)NC(=O)[C@@H](CC(=O)O)NC(=O)[C@H](Cc3cnc[nH]3)NC(=O)[C@@H](Cc3ccccc3)NC(=O)[C@H]([C@@H](C)CC)NC(=O)[C@@H](CCCN)NC2=O)[C@@H](C)CC)CS1 [Bacitracin] + CC1(C)S[C@@H]2[C@H](NC(=O)Cc3ccccc3)C(=O)N2[C@H]1C(=O)O [PenicillinG]
[1]; main component drawn
  Bliss interaction score: 0.0263
[2]
  Bliss interaction score: 0.0689
[3]
  Bliss interaction score: -0.0799
[4]
  Bliss interaction score: -0.164

## CC[C@H](C)[C@H](N)C1=N[C@H](C(=O)N[C@@H](CC(C)C)C(=O)N[C@H](CCC(=O)O)C(=O)N[C@H](C(=O)N[C@H]2CCCCNC(=O)[C@H](CC(N)=O)NC(=O)[C@@H](CC(=O)O)NC(=O)[C@H](Cc3cnc[nH]3)NC(=O)[C@@H](Cc3ccccc3)NC(=O)[C@H]([C@@H](C)CC)NC(=O)[C@@H](CCCN)NC2=O)[C@@H](C)CC)CS1 [Bacitracin] + CC(=O)O[C@H]1C[C@@]2(C)[C@@H](C[C@@H](O)[C@H]3[C@@]4(C)CC[C@@H](O)[C@@H](C)[C@@H]4CC[C@@]32C)/C1=C(\CCC=C(C)C)C(=O)O [Fusidic acid]
[1]; main component drawn
  Bliss interaction score: 0.012
[2]
  Bliss interaction score: -0.0273
[3]
  Bliss interaction score: -0.0749
[4]
  Bliss interaction score: -0.166

## CC[C@H](C)[C@H](N)C1=N[C@H](C(=O)N[C@@H](CC(C)C)C(=O)N[C@H](CCC(=O)O)C(=O)N[C@H](C(=O)N[C@H]2CCCCNC(=O)[C@H](CC(N)=O)NC(=O)[C@@H](CC(=O)O)NC(=O)[C@H](Cc3cnc[nH]3)NC(=O)[C@@H](Cc3ccccc3)NC(=O)[C@H]([C@@H](C)CC)NC(=O)[C@@H](CCCN)NC2=O)[C@@H](C)CC)CS1 [Bacitracin] + CC[C@H]1OC(=O)[C@H](C)C(=O)[C@H](C)[C@@H](O[C@@H]2O[C@H](C)C[C@H](N(C)C)[C@H]2O)[C@](C)(OC)C[C@@H](C)C(=O)[C@H](C)[C@H]2N(CCCCn3cnc(-c4cccnc4)c3)C(=O)O[C@]12C [Telithromycin]
[1]; main component drawn
  Bliss interaction score: -0.0302
[2]
  Bliss interaction score: -0.047
[3]
  Bliss interaction score: 0.0263
[4]
  Bliss interaction score: -0.0381

## CC[C@H](C)[C@H](N)C1=N[C@H](C(=O)N[C@@H](CC(C)C)C(=O)N[C@H](CCC(=O)O)C(=O)N[C@H](C(=O)N[C@H]2CCCCNC(=O)[C@H](CC(N)=O)NC(=O)[C@@H](CC(=O)O)NC(=O)[C@H](Cc3cnc[nH]3)NC(=O)[C@@H](Cc3ccccc3)NC(=O)[C@H]([C@@H](C)CC)NC(=O)[C@@H](CCCN)NC2=O)[C@@H](C)CC)CS1 [Bacitracin] + CC[C@H]1OC(=O)[C@H](C)[C@@H](O[C@H]2C[C@@](C)(OC)[C@@H](O)[C@H](C)O2)[C@H](C)[C@@H](O[C@@H]2O[C@H](C)C[C@H](N(C)C)[C@H]2O)[C@](C)(O)C[C@@H](C)C(=O)[C@H](C)[C@@H](O)[C@]1(C)O [Erythromycin]
[1]; main component drawn
  Bliss interaction score: -0.0209
[2]
  Bliss interaction score: -0.0632
[3]
  Bliss interaction score: 0.0397
[4]
  Bliss interaction score: -0.0517

## CC[C@H](C)[C@H](N)C1=N[C@H](C(=O)N[C@@H](CC(C)C)C(=O)N[C@H](CCC(=O)O)C(=O)N[C@H](C(=O)N[C@H]2CCCCNC(=O)[C@H](CC(N)=O)NC(=O)[C@@H](CC(=O)O)NC(=O)[C@H](Cc3cnc[nH]3)NC(=O)[C@@H](Cc3ccccc3)NC(=O)[C@H]([C@@H](C)CC)NC(=O)[C@@H](CCCN)NC2=O)[C@@H](C)CC)CS1 [Bacitracin] + CC[C@H]1OC(=O)[C@H](C)[C@@H](O[C@H]2C[C@@](C)(OC)[C@@H](O)[C@H](C)O2)[C@H](C)[C@@H](O[C@@H]2O[C@H](C)C[C@H](N(C)C)[C@H]2O)[C@](C)(OC)C[C@@H](C)C(=O)[C@H](C)[C@@H](O)[C@]1(C)O [Clarithromycin]
[1]; main component drawn
  Bliss interaction score: -0.0475
[2]
  Bliss interaction score: -0.0869
[3]
  Bliss interaction score: -0.0454
[4]
  Bliss interaction score: 0.0539

## CC[C@H](C)[C@H](N)C1=N[C@H](C(=O)N[C@@H](CC(C)C)C(=O)N[C@H](CCC(=O)O)C(=O)N[C@H](C(=O)N[C@H]2CCCCNC(=O)[C@H](CC(N)=O)NC(=O)[C@@H](CC(=O)O)NC(=O)[C@H](Cc3cnc[nH]3)NC(=O)[C@@H](Cc3ccccc3)NC(=O)[C@H]([C@@H](C)CC)NC(=O)[C@@H](CCCN)NC2=O)[C@@H](C)CC)CS1 [Bacitracin] + CN(C)[C@@H]1C(O)=C(C(N)=O)C(=O)[C@@]2(O)C(O)=C3C(=O)c4c(O)ccc(Cl)c4[C@@](C)(O)[C@H]3C[C@@H]12 [Clortetracycline]
[1]; main component drawn
  Bliss interaction score: 0.0294
[2]
  Bliss interaction score: -0.0827
[3]
  Bliss interaction score: 0.135
[4]
  Bliss interaction score: -0.12

## CC[C@H](C)[C@H](N)C1=N[C@H](C(=O)N[C@@H](CC(C)C)C(=O)N[C@H](CCC(=O)O)C(=O)N[C@H](C(=O)N[C@H]2CCCCNC(=O)[C@H](CC(N)=O)NC(=O)[C@@H](CC(=O)O)NC(=O)[C@H](Cc3cnc[nH]3)NC(=O)[C@@H](Cc3ccccc3)NC(=O)[C@H]([C@@H](C)CC)NC(=O)[C@@H](CCCN)NC2=O)[C@@H](C)CC)CS1 [Bacitracin] + CN[C@H](CC(C)C)C(=O)N[C@H]1C(=O)N[C@@H](CC(N)=O)C(=O)N[C@H]2C(=O)N[C@H]3C(=O)N[C@H](C(=O)N[C@H](C(=O)O)c4cc(O)cc(O)c4-c4cc3ccc4O)[C@H](O[C@H]3C[C@](C)(N)[C@@H](O)[C@H](C)O3)c3ccc(c(Cl)c3)Oc3cc2cc(c3O[C@@H]2O[C@H](CO)[C@@H](O)[C@H](O)[C@H]2O[C@H]2C[C@](C)(NCc3ccc(-c4ccc(Cl)cc4)cc3)[C@@H](O)[C@H](C)O2)Oc2ccc(cc2Cl)[C@H]1O [Oritavancin]
[1]; main component drawn
  Bliss interaction score: -0.0199
[2]
  Bliss interaction score: 0.084
[3]
  Bliss interaction score: 0.0372
[4]
  Bliss interaction score: -0.0398

## CC[C@H](C)[C@H](N)C1=N[C@H](C(=O)N[C@@H](CC(C)C)C(=O)N[C@H](CCC(=O)O)C(=O)N[C@H](C(=O)N[C@H]2CCCCNC(=O)[C@H](CC(N)=O)NC(=O)[C@@H](CC(=O)O)NC(=O)[C@H](Cc3cnc[nH]3)NC(=O)[C@@H](Cc3ccccc3)NC(=O)[C@H]([C@@H](C)CC)NC(=O)[C@@H](CCCN)NC2=O)[C@@H](C)CC)CS1 [Bacitracin] + CO[C@@]12[C@H](COC(N)=O)C3=C(C(=O)C(C)=C(N)C3=O)N1C[C@@H]1N[C@@H]12 [MitomycinC]
[1]; main component drawn
  Bliss interaction score: -0.0743
[2]
  Bliss interaction score: -0.0961
[3]
  Bliss interaction score: -0.0853
[4]
  Bliss interaction score: -0.0673

## CN[C@@H]1[C@H](O[C@H]2[C@H](O[C@H]3[C@H](O)[C@@H](O)[C@H](N=C(N)N)[C@@H](O)[C@@H]3N=C(N)N)O[C@@H](C)[C@]2(O)C=O)O[C@@H](CO)[C@H](O)[C@H]1O [Streptomycin] + CCCSc1nc(N[C@@H]2C[C@H]2c2ccc(F)c(F)c2)c2nnn([C@@H]3C[C@H](OCCO)[C@@H](O)[C@H]3O)c2n1 [Ticagrelor]
[1]
  Bliss interaction score: -0.259

## CN[C@@H]1[C@H](O[C@H]2[C@H](O[C@H]3[C@H](O)[C@@H](O)[C@H](N=C(N)N)[C@@H](O)[C@@H]3N=C(N)N)O[C@@H](C)[C@]2(O)C=O)O[C@@H](CO)[C@H](O)[C@H]1O [Streptomycin] + CCCc1nc2c(C)cc(-c3nc4ccccc4n3C)cc2n1Cc1ccc(-c2ccccc2C(=O)O)cc1 [Telmisartan]
[1]
  Bliss interaction score: 0.123

## CN[C@@H]1[C@H](O[C@H]2[C@H](O[C@H]3[C@H](O)[C@@H](O)[C@H](N=C(N)N)[C@@H](O)[C@@H]3N=C(N)N)O[C@@H](C)[C@]2(O)C=O)O[C@@H](CO)[C@H](O)[C@H]1O [Streptomycin] + Cc1ccc(C(C)C)c(O)c1 [Thymol]
[1]
  Bliss interaction score: -0.425
